Tested on: 945468-187-T-J3-PDC spheroids with HUVEC/MSC, viability
Experiment: Anticancer human tumor 945468-187-T-J3-PDC patient-derived rectal carcinoma cell line growth inhibition [PI3K]
Details: for IC50: curve of first compound; for viability, T/C: stronger effect = lower value
Summary of the method: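 Tumor cells were combined with HUVEC and MSCs into spheroids, then dosed with PI3K-inhibitor combinations over half-log ranges capped near clinical Cmax or 10 microM.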
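Also: spheroids exposed to agents for 7 days before viability read.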
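For viability, T/C in this document: 100% = DMSO vehicle control viability.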

In the case of `CC1(C)CCC(Nc2ncc(C(F)(F)F)c(-c3c[nH]c4c(P(C)(C)=O)c(C#N)ccc34)n2)CN1` (configuration not stated) + COc1c(OCCCN2CCOCC2)ccc2c3n(c(=NC(=O)c4cnc(N)nc4)nc12)CCN3, the IC50 (second compound 0.00316 µM) is reported as 3.35 µM, the IC50 (second compound 0.01 µM) is reported as 0.0316 µM and the IC50 (second compound 0.0316 µM) is reported as 1.25 µM. For the same compound, the IC50 (second compound 0.1 µM) was < 0.0316 µM, the IC50 (second compound 0.316 µM) was < 0.0316 µM and the IC50 (second compound 1 µM) was < 0.0316 µM. For the same compound, the viability, T/C (second compound 0.00316 µM, first compound 0.0316 µM) was 55.6%, the viability, T/C (second compound 0.00316 µM, first compound 0.1 µM) was 40.7% and the viability, T/C (second compound 0.00316 µM, first compound 0.316 µM) was 39%. For the same compound, the viability, T/C (second compound 0.00316 µM, first compound 1 µM) was 49.6%, the viability, T/C (second compound 0.00316 µM, first compound 3.16 µM) was 78.7% and the viability, T/C (second compound 0.00316 µM, first compound 10 µM) was 6.58%. It also gave a viability, T/C (second compound 0.01 µM, first compound 0.0316 µM) of 45.7%, a viability, T/C (second compound 0.01 µM, first compound 0.1 µM) of 48.1% and a viability, T/C (second compound 0.01 µM, first compound 0.316 µM) of 41.9%. The viability, T/C (second compound 0.01 µM, first compound 1 µM) was 56%, the viability, T/C (second compound 0.01 µM, first compound 3.16 µM) was 55.7% and the viability, T/C (second compound 0.01 µM, first compound 10 µM) was 5.22%. For the same compound, the viability, T/C (second compound 0.0316 µM, first compound 0.0316 µM) was 56.8%, the viability, T/C (second compound 0.0316 µM, first compound 0.1 µM) was 47.4% and the viability, T/C (second compound 0.0316 µM, first compound 0.316 µM) was 52%. The viability, T/C (second compound 0.0316 µM, first compound 1 µM) was 48.1%, the viability, T/C (second compound 0.0316 µM, first compound 3.16 µM) was 46.9% and the viability, T/C (second compound 0.0316 µM, first compound 10 µM) was 5.62%. For the same compound, the viability, T/C (second compound 0.1 µM, first compound 0.0316 µM) was 40.4%, the viability, T/C (second compound 0.1 µM, first compound 0.1 µM) was 39.2% and the viability, T/C (second compound 0.1 µM, first compound 0.316 µM) was 34.3%. The viability, T/C (second compound 0.1 µM, first compound 1 µM) was 35.4%, the viability, T/C (second compound 0.1 µM, first compound 3.16 µM) was 40.3% and the viability, T/C (second compound 0.1 µM, first compound 10 µM) was 2.67%. The viability, T/C (second compound 0.316 µM, first compound 0.0316 µM) was 27.9%, the viability, T/C (second compound 0.316 µM, first compound 0.1 µM) was 26.6% and the viability, T/C (second compound 0.316 µM, first compound 0.316 µM) was 23.2%. It also gave a viability, T/C (second compound 0.316 µM, first compound 1 µM) of 20.5%, a viability, T/C (second compound 0.316 µM, first compound 3.16 µM) of 20.8% and a viability, T/C (second compound 0.316 µM, first compound 10 µM) of 5.77%. For the same compound, the viability, T/C (second compound 1 µM, first compound 0.0316 µM) was 15.7%, the viability, T/C (second compound 1 µM, first compound 0.1 µM) was 17.2% and the viability, T/C (second compound 1 µM, first compound 0.316 µM) was 17.5%. It also gave a viability, T/C (second compound 1 µM, first compound 1 µM) of 14.6%, a viability, T/C (second compound 1 µM, first compound 3.16 µM) of 11.4% and a viability, T/C (second compound 1 µM, first compound 10 µM) of 0.98%.

Reference: PubChem BioAssay AID1963968 (Molecular Pharmacology Branch, DTP, NCI, 2024)
